Laboratory results published in PubChem BioAssay (NCI).
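Growth conditions: 96-well plates. Treatment: test compound, 48 hours, 5 concentrations. Analysis: linear interpolation between bracketing concentrations; unreached endpoints set to highest concentration. GI50 = concentration required for 50% inhibition of growth. The concentration for full growth arrest is given as TGI.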

The compounds below were run on RPMI-8226 leukemia (assay: NCI tumour cell line growth inhibition, 48 h).

`CSc1ncnc2c1ncn2CCC(=O)OC(C)(C)C` and `CC(C)(C)OC(=O)[C@H]1CCC(=S)N1Cc1ccccc1` cannot be ordered by TGI: > 100 µM for the first, > 100 µM for the second.

`CN(CC(=O)O)c1ncc2c(n1)CCCC2` and `CC1CCC(=O)C(C(=O)CC2CC(=O)N(C)C(=O)C2)C1` (stereo unspecified) cannot be ordered by TGI: > 100 µM for the first, > 100 µM for the second.

`COc1ccc(/C=C2\N=C(SC)N(CN3CCOCC3)C2=O)cc1` and `COc1ccc(-[n+]2nc(S(=O)(=O)O)c(/C=C/c3ccc(N(C)C)cc3)cc2C#N)cc1` cannot be ordered by TGI: > 100 µM for the first, > 100 µM for the second.

First: O=C(Nc1nc(C23CC4CC(CC(C4)C2)C3)cs1)c1cc2ccc(O)cc2oc1=O
Second: NC(=O)C12CC3CC(CC(F)(C3)C1)C2
The TGI of the first is lower: 32.6 µM for the first, > 100 µM for the second.

`S=c1sc2c(Cl)nc(Cl)nc2n1-c1ccccc1` and `COc1ccc(S(=O)(=O)c2nnc(S(=O)(=O)Cc3ccccc3)s2)cc1` cannot be ordered by TGI: > 100 µM for the first, > 100 µM for the second.

`Cn1ccc(C(=O)NCCN(CCNC(=O)c2ccn(C)c(=O)c2O)CCNC(=O)c2cccc(=O)n2O)c(O)c1=O` and `CCOc1ccccc1NC(=O)C(=O)CC(=O)c1sc(Nc2nnc(-c3ccc(Cl)c(Cl)c3)o2)nc1C` cannot be ordered by TGI: > 100 µM for the first, > 100 µM for the second.

Going from `CC(=O)Oc1c2c(c(O)c3ccccc13)C(n1cnc3c(ncn3C3OC(CO)C4OC(C)(C)OC43)c1=N)CCC2` (stereo unspecified) to `CN(C)CCC(=O)c1ccccc1`, the TGI rises from 18.7 µM to > 100 µM.

These compounds were tested on OVCAR-3 ovarian (assay: NCI tumour cell line growth inhibition, 48 h).

`CN1CCOC(c2ccccc2)O1` (stereo unspecified) and `CC(C)(C)OC(=O)[C@H]1CCC(=S)N1Cc1ccccc1` cannot be ordered by TGI: > 100 µM for the first, > 100 µM for the second.

Compared with `CCCNC(=S)NNC(=O)CSc1nc(-c2ccccc2)c(-c2ccccc2)[nH]1`, `CC1c2c(Cl)nc3ccccc3c2Oc2c1c(Cl)nc1ccccc21` is higher in TGI: 79.7 µM for the first, > 100 µM for the second.

`CC(=O)c1sc(Nc2nnc(-c3ccc(-c4nnc(Nc5nc(C)c(C(C)=O)s5)o4)cc3)o2)nc1C` and `CCOc1ccccc1NC(=O)C(=O)CC(=O)c1sc(Nc2nnc(-c3ccc(Cl)c(Cl)c3)o2)nc1C` cannot be ordered by TGI: > 100 µM for the first, > 100 µM for the second.

`CC(CO)(CO)N1C(=O)C2C3C=CC(C3)C2C1=O` (stereo unspecified) and `CC1CCC(=O)C(C(=O)CC2CC(=O)N(C)C(=O)C2)C1` (stereo unspecified) cannot be ordered by TGI: > 100 µM for the first, > 100 µM for the second.

`COC1(OC)C(N(C)C)=C(Cl)C(=O)/C1=C/C=O` and `COc1ccc(-[n+]2nc(S(=O)(=O)O)c(/C=C/c3ccc(N(C)C)cc3)cc2C#N)cc1` cannot be ordered by TGI: > 100 µM for the first, > 100 µM for the second.

Going from `CC(=O)Oc1ccc2c(C)cc(=O)oc2c1OC(C)=O` to `CC(=O)Oc1c2c(c(O)c3ccccc13)C(n1cnc3c(ncn3C3OC(CO)C4OC(C)(C)OC43)c1=N)CCC2` (stereo unspecified), the TGI falls from > 100 µM to 27.8 µM.

Compared with `N#Cc1c2ccccc2cn1-c1ccc(F)cc1`, `Oc1[nH]c2ccccc2c1N=NC(=S)Nc1cccc(Cl)c1` is higher in TGI: 67.9 µM for the first, > 100 µM for the second.

`Cc1ccccc1N1C(=O)C2C=CC(n3[nH]c(=O)n(Cc4ccccc4)c3=O)CC2C1=O` (stereo unspecified) and `COc1ccc(S(=O)(=O)c2nnc(S(=O)(=O)Cc3ccccc3)s2)cc1` cannot be ordered by TGI: > 100 µM for the first, > 100 µM for the second.

`CSc1ncnc2c1ncn2CCC(=O)OC(C)(C)C` and `COc1ccc(/C=C2\N=C(SC)N(CN3CCOCC3)C2=O)cc1` cannot be ordered by TGI: > 100 µM for the first, > 100 µM for the second.

`CN(CC(=O)O)c1ncc2c(n1)CCCC2` and `O=C(O)[C@@H]1CCS(=O)(=O)N1` cannot be ordered by TGI: > 100 µM for the first, > 100 µM for the second.

Going from `O=C(Nc1nc(C23CC4CC(CC(C4)C2)C3)cs1)c1cc2ccc(O)cc2oc1=O` to `NC(=O)C12CC3CC(CC(F)(C3)C1)C2`, the TGI rises from 60.5 µM to > 100 µM.

Going from `S=c1sc2c(Cl)nc(Cl)nc2n1-c1ccccc1` to `CN(C)CCC(=O)c1ccccc1`, the TGI rises from 60.4 µM to > 73.4 µM.

`Cn1ccc(C(=O)NCCN(CCNC(=O)c2ccn(C)c(=O)c2O)CCNC(=O)c2cccc(=O)n2O)c(O)c1=O` and `COc1ccc(P2(=S)OC(C)(C)C(C)(C)O2)cc1` cannot be ordered by TGI: > 100 µM for the first, > 100 µM for the second.

The compounds below were run on PC-3 prostate (assay: NCI tumour cell line growth inhibition, 48 h).

`O=c1cc(-c2cccc3ccccc23)[nH]c2ncccc12` and `Oc1[nH]c2ccccc2c1N=NC(=S)Nc1cccc(Cl)c1` cannot be ordered by TGI: > 100 µM for the first, > 100 µM for the second.

`CC(CO)(CO)N1C(=O)C2C3C=CC(C3)C2C1=O` (stereo unspecified) and `CC1CCC(=O)C(C(=O)CC2CC(=O)N(C)C(=O)C2)C1` (stereo unspecified) cannot be ordered by TGI: > 100 µM for the first, > 100 µM for the second.

`CC(=O)Oc1ccc2c(C)cc(=O)oc2c1OC(C)=O` and `COc1ccc(-[n+]2nc(S(=O)(=O)O)c(/C=C/c3ccc(N(C)C)cc3)cc2C#N)cc1` cannot be ordered by TGI: > 100 µM for the first, > 100 µM for the second.

`CSc1ncnc2c1ncn2CCC(=O)OC(C)(C)C` and `CC(C)(C)OC(=O)[C@H]1CCC(=S)N1Cc1ccccc1` cannot be ordered by TGI: > 100 µM for the first, > 100 µM for the second.

`CN(CC(=O)O)c1ncc2c(n1)CCCC2` and `O=C(O)[C@@H]1CCS(=O)(=O)N1` cannot be ordered by TGI: > 100 µM for the first, > 100 µM for the second.

`COc1ccc(/C=C2\N=C(SC)N(CN3CCOCC3)C2=O)cc1` and `COc1ccc(P2(=S)OC(C)(C)C(C)(C)O2)cc1` cannot be ordered by TGI: > 100 µM for the first, > 100 µM for the second.

First: O=C(Nc1nc(C23CC4CC(CC(C4)C2)C3)cs1)c1cc2ccc(O)cc2oc1=O
Second: Cn1ccc(C(=O)NCCN(CCNC(=O)c2ccn(C)c(=O)c2O)CCNC(=O)c2cccc(=O)n2O)c(O)c1=O
The TGI of the first is lower: 35.4 µM for the first, > 100 µM for the second.

`COc1ccc(S(=O)(=O)c2nnc(S(=O)(=O)Cc3ccccc3)s2)cc1` gave a TGI of 47.7 µM.

These compounds were tested on SF-295 CNS (assay: NCI tumour cell line growth inhibition, 48 h).

`O=c1cc(-c2cccc3ccccc23)[nH]c2ncccc12` and `N#Cc1c2ccccc2cn1-c1ccc(F)cc1` cannot be ordered by TGI: > 100 µM for the first, > 100 µM for the second.

`CN1CCOC(c2ccccc2)O1` (stereo unspecified) and `CC(C)(C)OC(=O)[C@H]1CCC(=S)N1Cc1ccccc1` cannot be ordered by TGI: > 100 µM for the first, > 100 µM for the second.

`CCCNC(=S)NNC(=O)CSc1nc(-c2ccccc2)c(-c2ccccc2)[nH]1` and `CC1c2c(Cl)nc3ccccc3c2Oc2c1c(Cl)nc1ccccc21` cannot be ordered by TGI: > 100 µM for the first, > 100 µM for the second.

`CC(=O)c1sc(Nc2nnc(-c3ccc(-c4nnc(Nc5nc(C)c(C(C)=O)s5)o4)cc3)o2)nc1C` and `CCOc1ccccc1NC(=O)C(=O)CC(=O)c1sc(Nc2nnc(-c3ccc(Cl)c(Cl)c3)o2)nc1C` cannot be ordered by TGI: > 100 µM for the first, > 100 µM for the second.

`CC(CO)(CO)N1C(=O)C2C3C=CC(C3)C2C1=O` (stereo unspecified) and `CC1CCC(=O)C(C(=O)CC2CC(=O)N(C)C(=O)C2)C1` (stereo unspecified) cannot be ordered by TGI: > 100 µM for the first, > 100 µM for the second.

`COC1(OC)C(N(C)C)=C(Cl)C(=O)/C1=C/C=O` and `COc1ccc(-[n+]2nc(S(=O)(=O)O)c(/C=C/c3ccc(N(C)C)cc3)cc2C#N)cc1` cannot be ordered by TGI: > 100 µM for the first, > 100 µM for the second.

Going from `CC(=O)Oc1ccc2c(C)cc(=O)oc2c1OC(C)=O` to `CC(=O)Oc1c2c(c(O)c3ccccc13)C(n1cnc3c(ncn3C3OC(CO)C4OC(C)(C)OC43)c1=N)CCC2` (stereo unspecified), the TGI falls from > 100 µM to 27 µM.

First: Cc1ccccc1N1C(=O)C2C=CC(n3[nH]c(=O)n(Cc4ccccc4)c3=O)CC2C1=O (stereo unspecified)
Second: COc1ccc(S(=O)(=O)c2nnc(S(=O)(=O)Cc3ccccc3)s2)cc1
The TGI of the first is higher: > 100 µM for the first, 90.1 µM for the second.

`CSc1ncnc2c1ncn2CCC(=O)OC(C)(C)C` and `COc1ccc(/C=C2\N=C(SC)N(CN3CCOCC3)C2=O)cc1` cannot be ordered by TGI: > 100 µM for the first, > 100 µM for the second.

`CN(CC(=O)O)c1ncc2c(n1)CCCC2` and `O=C(O)[C@@H]1CCS(=O)(=O)N1` cannot be ordered by TGI: > 100 µM for the first, > 100 µM for the second.

First: Oc1[nH]c2ccccc2c1N=NC(=S)Nc1cccc(Cl)c1
Second: S=c1sc2c(Cl)nc(Cl)nc2n1-c1ccccc1
The TGI of the first is lower: 29.2 µM for the first, > 100 µM for the second.

Compared with `O=C(Nc1nc(C23CC4CC(CC(C4)C2)C3)cs1)c1cc2ccc(O)cc2oc1=O`, `Cn1ccc(C(=O)NCCN(CCNC(=O)c2ccn(C)c(=O)c2O)CCNC(=O)c2cccc(=O)n2O)c(O)c1=O` is higher in TGI: 48.4 µM for the first, > 100 µM for the second.

`COc1ccc(P2(=S)OC(C)(C)C(C)(C)O2)cc1` and `CN(C)CCC(=O)c1ccccc1` cannot be ordered by TGI: > 100 µM for the first, > 100 µM for the second.

What follows are compounds tested on NCI-H460 lung (assay: NCI tumour cell line growth inhibition, 48 h).

With `O=c1cc(-c2cccc3ccccc23)[nH]c2ncccc12` the GI50 was 0.0392 µM.

`O=c1cc(-c2cccc3ccccc23)[nH]c2ncccc12` and `CCCNC(=S)NNC(=O)CSc1nc(-c2ccccc2)c(-c2ccccc2)[nH]1` cannot be ordered by TGI: > 100 µM for the first, > 100 µM for the second.

`CN1CCOC(c2ccccc2)O1` (stereo unspecified) and `CC(=O)c1sc(Nc2nnc(-c3ccc(-c4nnc(Nc5nc(C)c(C(C)=O)s5)o4)cc3)o2)nc1C` cannot be ordered by TGI: > 100 µM for the first, > 100 µM for the second.
